Experimental data as given in US10322074B2, “Apparatus and method for preparing cosmeceutical ingredients containing epi-dermal delivery mechanisms” (PPP&C INC., priority 2015, dated 2019).

Assay: Phase behavior and solubility of lipid in dense CO2 / threshold pressure for precipitation
Format: physicochemical
From the text: Prior to liposome or niosome formation, the phase behavior and solubility of the chosen lipid in dense CO2 were investigated to verify the suitability of the lipid for dense gas processing and, in particular LPLTVs processing.
Knowledge of the threshold pressure for precipitation of lipid from solution is also a key factor for design of the LPLTVs process in order to determine the maximum pressure for the technique so that yield is enhanced and loss of lipid in the expansion chamber minimized. The solid state of 1,2 distearoyl-sn-glycero-3-phosphocholine (DSPC) was maintained when the lipid was exposed to CO2 below 350 bar at 50° C. and 150 bar at 70° C. The solubility of DSPC in pure CO2 at 50° C. and pressures up to 280 bar was considered negligible. […] Use of higher pressures or larger amounts of organic solvent are undesirable, thus the results of the solubility study are in agreement with the literature in concluding that effects arising from poor solubility of lipids in dense CO2 are not easily overcome.
In prior art, at 50° C. and 250 bar, DSPC required the addition of 4.8% v/v ethanol as well as the use of a recycling system for homogeneous dissolution of the lipid in CO2. In the current embodiment, the use of the LPLTVs process eliminates the current limitations of dense gas techniques associated with solubilizing lipids using a supercritical fluid and simply utilizes a dense gas as an aerosolization aid. The threshold pressure for the precipitation of DSPC from a 10 mg/mL ethanol solution at 22° C. was 55 bar.
Precipitation was first observed at 58, 55, and 56 bar for the 5, 10, and 20 mg/mL solutions of DSPC and cholesterol (70:30 lipid to cholesterol weight ratio) in ethanol at 22° C., respectively. Therefore it can be seen that cholesterol had negligible effect on the threshold pressure. […] A faster pressurization rate is preferable for the embodiments LPLTVs process in order to minimize the time requirement for each experiment. During this experiment, noticeable expansion only started to occur after 50 bar was reached. […]

threshold pressure for precipitation (10 mg/mL ethanol solution, 22° C.): 55 bar
effect of ethanol co-solvent on solubility in CO2 (5 mol % ethanol, 50° C., 250 bar): did not significantly improve
solubility in pure CO2 (50° C., pressures up to 280 bar): negligible
SMILES: CCCCCCCCCCCCCCCCCC(=O)OC[C@H](COP(=O)([O-])OCC[N+](C)(C)C)OC(=O)CCCCCCCCCCCCCCCCC [DSPC, 1,2 distearoyl-sn-glycero-3-phosphocholine]
